Data on 4 compounds can be found in US20150203526A1, “NOVEL 19-NOR-STEROIDS AND THEIR USE FOR TREATING PROGESTERONE- DEPENDENT CONDITIONS” (REPROS THERAPEUTICS INC., priority 2010, published 2015).

≈ marks a conversion by molar mass, not a printed value. Where two headings read alike, the source gives them in different places.

Series [1] can be described thus: Thermodynamic solubility (solid shaken in solvent at 37° C., filtrate by LC/UV). Type of series: physicochemical. As to conditions: thermodynamic from solid. The method, then:
Briefly, 300 ul of solvent (ethanol, 0.1 M HCl or distilled H2O) were added to 14-16 mg of the solid compound (5 parallel measurements per sample, per solvent, mean concentrations 93-107 mM). The mixtures were shaken at 37° C. for 24 and 72 hours. Concentrations of the filtrates were determined by liquid chromatography with UV detector (LC/UV) with 3-point calibration.
Crystal form was checked by X-ray powder diffraction (XRPD) after recovering the slurry at 24 and 72 hours. […] The exact cause of this observed phenomenon is not known.

Assay in series [2]: as above
The conditions noted are these: water and 1.0 M HCl, 24 vs 72 hours. Type of series: physicochemical.

The nature of series [3]: Oral vs vaginal pharmacokinetics in beagles (25 mg). It counts as in vivo. How it is done: FIG. 1 illustrates a comparison of the Cmax (peak serum concentration) and area under the curve (AUC) following oral and vaginal administration of CDB-4124 or CDB-4453 at a 25 mg dose in beagles.
Beagles were administered 25 mg of CDB-4124 or CDB-4453 (the monodemethylated metabolite of CDB-4124) formulated as either a micronized powder or a vaginal suppository. […] Moreover, systemic exposure of the drug is much lower when administered locally (compare AUC for CDB-4124 and CDB-4453 when administered vaginally vs. orally).

Series [4] is described as follows: Pharmacokinetic studies on clinical trial subjects after oral CDB-4124. It counts as in vivo, human. The conditions noted are these: oral CDB-4124, 12.5 mg vs 50 mg. How it is done: The maximum concentrations of CDB-4124 and its mono-demethylated metabolite (CDB-4453) for the 12.5 mg dose were 25% of the 50 mg dose. All liver toxicities resolved in those women that returned for safety follow-ups, including those subjects that developed liver-associated serious adverse effects (SAEs).
Pharmacokinetic studies performed on participating subjects detected a high Cmax and a Tmax at 1-2 hours following administration. […] Metabolism of CDB-4124 by the liver provides the opportunity for liver damage and greatly reduces the concentration of the antiprogestin before it reaches the systemic circulation. Thus, alternative routes of administration of antiprogestins that avoid first pass metabolism such as, without limitation, intravenous, intramuscular, and sublingual, should allow antiprogestins to be absorbed directly into the systemic circulation and thereby provide a method for treating progestone-dependent conditions while avoiding liver toxicity. Administration routes which avoid first pass metabolism may also require less drug per dose to achieve the same therapeutic benefit relative to oral administration.

Setting [5] is: organic solvent or mixture, ethanol, read-out: Thermodynamic solubility, Ethanol, Mean.
[6] abbreviates: simulated gastric fluid, 0.1M HCl, read-out: Thermodynamic solubility, 0.1M HCl, Mean.
The mark [7] stands for this setting: distilled water, read-out: Thermodynamic solubility, Distilled water, Mean.
[8] abbreviates: distilled water, read-out: Thermodynamic solubility, distilled water, Mean.

By thermodynamic solubility is commonly meant solubility found after equilibrating the solid with the medium. As for `CC(=O)O[C@]1(C(C)=O)CC[C@H]2[C@@H]3CCC4=CC(=O)CCC4=C3[C@@H](c3ccc(C(C)=O)cc3)C[C@@]21C` [REP-4510, 17α-acetoxy-11β-(4-acetylphenyl)-19-norpregna-4,9-dien-3,20-dione], the solubility (thermodynamic) at 24 h in series [1] (setting [5]) was 3300 µM (≈ 1570 µg/mL); in series [1] (setting [6]) it was 0.5 µM (≈ 0.237 µg/mL); in series [1] (setting [7]) it was 0.52 µM (≈ 0.247 µg/mL). Further, the thermodynamic solubility at 72 h in series [1] (setting [5]) was 2900 µM (≈ 1380 µg/mL); in series [1] (setting [6]), 0.45 µM (≈ 0.214 µg/mL); in series [1] (setting [8]), 0.44 µM (≈ 0.209 µg/mL).
Turning to `COCC(=O)[C@@]1(OC(C)=O)CC[C@H]2[C@@H]3CCC4=CC(=O)CCC4=C3[C@@H](c3ccc(C(C)=O)cc3)C[C@@]21C` [CDB-4239, 21-methoxy-17α-acetoxy-11β-(4-acetylphenyl)-19-norpregna-4,9-diene-3,20-dione], the “Tendency of water and HCl solubilities between 24 and 72 hours” value in series [2] is on record as “decreasing tendency”. Further, the thermodynamic solubility at 24 h was over 98200 µM in series [1] (setting [5]), 140 µM (≈ 70.8 µg/mL) in series [1] (setting [6]) and 141 µM (≈ 70.9 µg/mL) in series [1] (setting [7]). In addition, the thermodynamic solubility at 72 h is over 100000 µM in series [1] (setting [5]), 110 µM (≈ 55.6 µg/mL) in series [1] (setting [6]) and 54.8 µM (≈ 27.7 µg/mL) in series [1] (setting [8]).
As to `CNc1ccc([C@H]2C[C@@]3(C)[C@@H](CC[C@]3(OC(C)=O)C(=O)COC)[C@@H]3CCC4=CC(=O)CCC4=C32)cc1` [CDB-4453], the “Metabolism after peak plasma concentration” value in series [3] (oral micronized powder) is “rapidly metabolized”. Also, in series [3] (vaginal suppository), the Metabolism result is “metabolized slowly” and the “Peak plasma concentrations (Cmax)” value is reported as “relatively low”. In addition, the “Systemic exposure (AUC), local vs oral” value in series [3] (vaginal vs oral) is recorded as “much lower”. Moreover, the “Maximum concentration for the 12.5 mg dose relative to the 50 mg dose” value in series [4] is 25%.
`CC(=O)OCC(=O)[C@@]1(OC(C)=O)CC[C@H]2[C@@H]3CCC4=CC(=O)CCC4=C3[C@@H](c3ccc(C(C)=O)cc3)C[C@@]21C` [CDB-4241, 21-acetoxy-17α-acetoxy-11β-(4-acetylphenyl)-19-norpregna-4,9-diene-3,20-dione]: the thermodynamic solubility at 24 h in series [1] (setting [5]) is 26300 µM (≈ 14000 µg/mL); in series [1] (setting [6]), 3.21 µM (≈ 1.71 µg/mL); in series [1] (setting [7]) it was 3.08 µM (≈ 1.64 µg/mL). Also, the solubility (thermodynamic) at 72 h is 21600 µM (≈ 11500 µg/mL) in series [1] (setting [5]), 3.9 µM (≈ 2.08 µg/mL) in series [1] (setting [6]) and 3.05 µM (≈ 1.62 µg/mL) in series [1] (setting [8]).
